Publication PMC4208844 (PLoS ONE, 2014)

Legend:
CYP3A4/5 = CYP3A4/5 catalytic activity, testosterone 6β-hydroxylation in human liver microsomes; conditions: pH 7.4, probe testosterone (6β-hydroxylation)
CYP3A4 protein = CYP3A4 protein expression (Western blot) in HepG2 cells; assay type: cell-based, human; conditions: 48 h
Method: Human colon adenocarcinoma cells LS174T (ECACC No. 87060401) and human hepatocellular carcinoma cells HepG2 (ECACC No. 85011430) were purchased from ECACC and were cultured in as recommended by manufacturer. Primary human hepatocytes used in this study were obtained from two sources: (i) from multiorgan donors HH52 and […] (male; 71 years); the use of liver cells of donors HH52 and HH54 was approved by “Ethical committee at the Faculty Hospital Olomouc”, and it was in accordance with Transplantation law #285/2002 Sb; “Ethical committee at the Faculty Hospital Olomouc” waived the authors from obtaining consent from the next of kin, regarding human hepatocytes obtained from liver donors HH52 and HH54. (ii) long-term human hepatocytes in monolayer Batch HEP220770 (person) were purchased from Biopredic International (Biopredic International, Rennes, France). Cells were cultured in serum-free medium. Cultures were maintained at 37°C and 5% CO2 in a humidified incubator.
Total protein extracts were prepared as described elsewhere. SDS-PAGE gels (10%) were run according to the general procedure followed by the protein transfer onto PVDF membrane. The membrane was saturated with 5% non-fat dried milk. […] The density of bands was measured by densitometry.

[1] = MTT cytotoxicity test in LS174T cells; conditions: human
Method: (§1) A transiently transfected LS174T human colon adenocarcinoma cells were used for assessment of PXR transcriptional activity. […] The reporter plasmid was transiently transfected to LS174T cells by lipofection (FuGENE 6). Cells were incubated for 24 h with tested compounds and/or vehicle (DMSO; 0.1% v/v), in the presence or absence of RIF (10 µM; LS174T cells). After the treatments, cells were lysed and luciferase activity was measured. In parallel, cell viability was determined by conventional MTT test [MTT = 3-(4,5-dimethylthiazol-2-yl)-2,5-diphenyltetrazolium bromide]; briefly: After the treatment, culture medium was replaced with fresh one and 100 µL of MTT reagent (5 mg/mL PBS) was added. Three hours later, the medium was removed, and cells were washed with PBS and lysed for 5 min with 1 mL of DMSO containing 1% ammonia. The lysate was diluted 20 times with DMSO (+1% ammonia) and absorbance at 540 nm was measured against blank (DMSO+1% ammonia) (TECAN, Schoeller Instruments LLC). Results were normalized to the control value (i.e. 100×A sample/A control) and expressed as percentage of control.

pregnane X receptor PXR = molecular target: T1, pregnane X receptor PXR (Homo sapiens, UniProt O75469); conditions: read-out: PXR antagonist IC50; transfected LS174T cells; 24 h; in the presence of RIF (10 µM)
T1 sequence (O75469 1-434): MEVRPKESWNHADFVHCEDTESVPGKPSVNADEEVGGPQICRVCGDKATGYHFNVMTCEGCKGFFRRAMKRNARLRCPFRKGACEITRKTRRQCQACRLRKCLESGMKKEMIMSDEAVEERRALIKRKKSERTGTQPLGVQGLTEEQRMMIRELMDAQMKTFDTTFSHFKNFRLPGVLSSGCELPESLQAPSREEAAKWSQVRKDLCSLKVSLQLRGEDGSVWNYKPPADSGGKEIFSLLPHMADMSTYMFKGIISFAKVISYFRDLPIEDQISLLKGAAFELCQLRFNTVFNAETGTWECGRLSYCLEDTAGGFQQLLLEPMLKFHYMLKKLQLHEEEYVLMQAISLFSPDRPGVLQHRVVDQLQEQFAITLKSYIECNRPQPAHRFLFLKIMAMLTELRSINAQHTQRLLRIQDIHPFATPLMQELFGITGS

LS174T cells = assay: MTT cytotoxicity test in LS174T cells; conditions: read-out: MTT test IC50 (cytotoxicity); LS174T cells; 24 h incubation
Method: as §1

## CC(=O)N1CCN(c2ccc(OCC3COC(Cn4ccnc4)(c4ccc(Cl)cc4Cl)O3)cc2)CC1 (racemic) [(rac)-KET, ketoconazole]
CYP3A4/5
  activity at 10 µM: 3%
CYP3A4 protein
  CYP3A4 protein induction (in words): did not find convincing induction
[1]
  IC50 at 24 h: 50.3 µM

## CC(=O)N1CCN(c2ccc(OC[C@H]3CO[C@](Cn4ccnc4)(c4ccc(Cl)cc4Cl)O3)cc2)CC1 [(+)-KET, (2R,4S)-(+)-KET]
Pregnane X receptor PXR
  IC50: 41.2 µM
LS174T cells
  IC50: 52.7 µM

## CC(=O)N1CCN(c2ccc(OC[C@@H]3CO[C@@](Cn4ccnc4)(c4ccc(Cl)cc4Cl)O3)cc2)CC1 [(−)-KET, (2S,4R)-(−)-KET]
[1]
  IC50 at 24 h: 57.5 µM
